Reference: ChEMBL document CHEMBL4699530, “Isolation, Structural Elucidation, and Anti-HIV Activity of Daphnane Diterpenoids from Daphne odora” (J Nat Prod, 2020)

Assays:
[1] = tested on: MT4; assay: Cytotoxicity against human MT4 cells assessed as reduction in cell viability incubated for 4 days by CellTiter-Glo assay; format: cell-based; conditions: MT4, 96 h
[2] = tested on: Human immunodeficiency virus; assay: Antiviral activity against HIV NL4-3 infected in human MT4 cells assessed as suppression of viral replication by measuring reduction in p24 level measured after 4 days by ELISA method; format: functional, organism-based; conditions: Human immunodeficiency virus 1, NL4-3, MT4, 96 h

| Compound | IC50 [1] | EC50 [2] |
| --- | --- | --- |
| C=C(C)[C@]1(O)C[C@@H](C)[C@@]2(O)[C@@H]([C@H]3O[C@@]4([C@H](O)[C@]3(O)COC(=O)c3ccccc3)[C@@H](OC(=O)/C=C/C=C/C=C/CCC)[C@@H](C)C[C@@H]24)[C@H]1O | > 34 nM | > 34 nM |
| C=C(C)[C@@]1(O)[C@H](OC(=O)/C=C/C=C/C=C/CCC)[C@@H]2[C@@H]3O[C@]3(CO)[C@@H](O)[C@]3(O)C(=O)C(C)=C[C@H]3[C@@]2(O)[C@H](C)[C@H]1OC(=O)/C=C/c1ccc(O)c(OC)c1 | > 34 nM | > 34 nM |
| C=C(C)[C@@]12O[C@@]3(/C=C/C=C/C=C/CCC)O[C@@H]1[C@@H]1[C@@H]4O[C@]4(CO)[C@@H](O)[C@]4(O)C(=O)C(C)=C[C@H]4[C@@]1(O3)[C@H](C)[C@H]2OC(=O)c1ccccc1 | > 34 nM | 1.9 nM |
| C=C(C)[C@@]12O[C@@]3(c4ccccc4)O[C@@H]1[C@@H]1[C@@H]4O[C@]4(CO)[C@@H](O)[C@]4(O)C(=O)C(C)=C[C@H]4[C@@]1(O3)[C@H](C)[C@H]2OC(=O)/C=C/C=C/C=C/CCC | > 34 nM | 2.3 nM |
| C=C(C)[C@@]12O[C@@]3(/C=C/C=C/C=C/CCC)O[C@@H]1[C@@H]1[C@@H]4O[C@]4(CO)[C@@H](O)[C@]4(O)C(=O)C(C)=C[C@H]4[C@@]1(O3)[C@H](C)[C@H]2OC(=O)/C=C/c1ccc(O)c(OC)c1 | > 34 nM | 4.5 nM |
| C=C(C)[C@@]1(O)[C@H](OC(=O)/C=C/C=C/CCCCC)[C@@H]2[C@@H]3O[C@]3(CO)[C@@H](O)[C@]3(O)C(=O)C(C)=C[C@H]3[C@@]2(O)[C@H](C)[C@H]1OC(=O)/C=C/c1ccccc1 | > 34 nM | > 34 nM |
| C=C(C)[C@@]12O[C@@]3(/C=C/C=C/C=C/CCC)O[C@@H]1[C@@H]1[C@@H]4O[C@]4(CO)[C@@H](O)[C@]4(O)C(=O)C(C)=C[C@H]4[C@@]1(O3)[C@H](C)[C@H]2OC(=O)/C=C/c1ccccc1 | > 34 nM | 3.7 nM |
| C=C(C)[C@@]12O[C@@]3(/C=C/C=C/C=C/CCC)O[C@@H]1[C@@H]1[C@@H]4O[C@]4(CO)[C@@H](O)[C@]4(O)C(=O)C(C)=C[C@H]4[C@@]1(O3)[C@H](C)[C@H]2OC(=O)/C=C/c1ccc(O)cc1 | > 34 nM | 1.6 nM |
| C=C(C)[C@@]12O[C@@]3(/C=C/C=C/CCCCC)O[C@@H]1[C@@H]1[C@@H]4O[C@]4(CO)[C@@H](O)[C@]4(O)C(=O)C(C)=C[C@H]4[C@@]1(O3)[C@H](C)[C@H]2OC(=O)/C=C/c1ccc(O)c(OC)c1 | > 34 nM | 1.5 nM |
| C=C(C)[C@@]12O[C@@]3(/C=C/C=C/CCCCC)O[C@@H]1[C@@H]1[C@@H]4O[C@]4(CO)[C@@H](O)[C@]4(O)C(=O)C(C)=C[C@H]4[C@@]1(O3)[C@H](C)[C@H]2OC(=O)/C=C/c1ccccc1 | > 34 nM | 2.2 nM |
| C=C(C)[C@@]12O[C@@]3(/C=C/C=C/CCCCC)O[C@@H]1[C@@H]1[C@@H]4O[C@]4(CO)[C@@H](O)[C@]4(O)C(=O)C(C)=C[C@H]4[C@@]1(O3)[C@H](C)[C@H]2OC(=O)/C=C/c1ccc(O)cc1 | > 34 nM | 7.7 nM |
| C=C(C)[C@@]12O[C@@]3(/C=C/C=C/CCCCC)O[C@@H]1[C@@H]1[C@@H]4O[C@]4(CO)[C@@H](O)[C@]4(O)C(=O)C(C)=C[C@H]4[C@@]1(O3)[C@H](C)[C@H]2OC(=O)c1ccccc1 [GNIDILATIDIN] | > 34 nM | 1.9 nM |
